From patent US12410148B2, “Antibody drug conjugates” (Pharma Mar, S.A., priority 2013, dated 2025)
≈ marks a conversion by molar mass, not a printed value. Where “and” joins values, the source holds several entries; their conditions need not be identical. Equal values may be shown once. Read-outs that look alike come from different tables or passages of the source.

Columns and labels:
BT-474 cells = assay: In vitro cytotoxicity, SRB assay, 72 h dose-response; format: cell-based; conditions: Homo sapiens
Excerpt: (§1) Nature Protocols, 1, 1112-1 116.

HCC-1954 cells = assay: as above; format: cell-based; conditions: Homo sapiens, HCC1954, 72 h
Excerpt: as §1

SK-OV-3 cells = assay: as above; format: cell-based; conditions: Homo sapiens
Excerpt: as §1

SK-BR-3 cells = assay: as above; format: cell-based; conditions: Homo sapiens, SK-BR-3, 72 h
Excerpt: All tumor cell lines used in this study were obtained from the American Type Culture Collection (ATCC), unless otherwise indicated; BT-474 (ATCC HTB-20, Breast Ductal Carcinoma), SK-BR-3 (ATCC HTB-30, Breast Adenocarcinoma) and HCC-1954 (ATCC CRL-2338, Breast Ductal Carcinoma), all HER2+; MDA-MB-231 (ATCC HTB-26, Breast Adenocarcinoma) and MCF-7 (ATCC HTB-22 Breast Adenocarcinoma, pleural effusion), all HER2-; SK-OV-3 (ATCC HTB-77, Ovary Adenocarcinoma), HER2+; NB-4 (Acute Promyelocytic Leukemia, APL, CD13+, M. Lanotte et al. (1991) NB4, a maturation inducible cell line with t(15;17) marker isolated from a human acute promyelocytic leukemia (M3). […] Cells were maintained at 37° C., 5% CO 2 and 95% humidity in Dulbecco's Modified Eagle's Medium (DMEM) (for MCF and MDA-MB-231 cells), RPMI-1640 (for SK-BR-3, HCC-1954, NB-4, U937, Raji, RPMI-8226, Karpas-299, MOLT-4, Raji-clone #10 and Raji-clone #18 cells), RPMI-1640+1% ITS (for BT-474 cells) or McCOyS (for SK-OV-3 cells), all media supplemented with 10% Fetal Calf Serum (FCS) and 100 units/mL penicillin and streptomycin.
For adherent cells: A colorimetric assay using sulforhodamine B (SRB) was adapted for quantitative measurement of cell growth and cytotoxicity, as described in V. Vichai and K. Kirtikara (2006) Sulforhodamine B colorimetric assay for cytotoxicity screening. […] Briefly, cells were seeded in 96-well microtiter plates and allowed to stand for 24 hours in drug-free medium before treatment with vehicle alone or the indicated compounds for 72 hours. For quantification, cells were washed twice with phosphate buffered saline (PBS), fixed for 15 min in 1% glutaraldehyde solution, rinsed twice with PBS, stained in 0.4% SRB-1% acetic acid solution for 30 min, rinsed several times with 1% acetic acid solution and air-dried. SRB was then extracted in 10 mM trizma base solution and the optical density measured at 490 nm in a microplate spectrophotometer. Cell survival was expressed as percentage of control, untreated cell survival.

NB-4 cells = assay: In vitro cytotoxicity, MTT assay, 72 h dose-response; format: cell-based; conditions: Homo sapiens, CD13+
Procedure: (§3) Briefly, MTT solution was added to the cell cultures at a final concentration of 0.5 mg/mL, and incubated for 1 to 4 hours at 37° C. until formazan crystals are formed. Culture medium is carefully removed from the cell cultures and formazan crystals resuspended in 100 μl DMSO. […] Cell survival was expressed as percentage of control, untreated cell survival.

MOLT-4 cells = assay: as above; format: cell-based; conditions: Homo sapiens, CD5+
Procedure: as §3

[1] = test system: BT-474, HCC-1954, SK-BR-3, MDA-MB-231, MCF-7 and SK-OV-3 cells; assay: In vitro cytotoxicity, whole cell panel of Bioactivity Example 1; format: cell-based; conditions: Homo sapiens
Excerpt: (§2) All tumor cell lines used in this study were obtained from the American Type Culture Collection (ATCC), unless otherwise indicated; BT-474 (ATCC HTB-20, Breast Ductal Carcinoma), SK-BR-3 (ATCC HTB-30, Breast Adenocarcinoma) and HCC-1954 (ATCC CRL-2338, Breast Ductal Carcinoma), all HER2+; MDA-MB-231 (ATCC HTB-26, Breast Adenocarcinoma) and MCF-7 (ATCC HTB-22 Breast Adenocarcinoma, pleural effusion), all HER2-; SK-OV-3 (ATCC HTB-77, Ovary Adenocarcinoma), HER2+; NB-4 (Acute Promyelocytic Leukemia, APL, CD13+, M. Lanotte et al. (1991) NB4, a maturation inducible cell line with t(15;17) marker isolated from a human acute promyelocytic leukemia (M3). Blood 77, 1080-1086), (CD13+) and U937 (ATCC CRL-1 593.2, Histiocytic Lymphoma, CD13+ and CD4+); Raji (ATCC CCL-86, Burkitt's Lymphoma) (CD13−, CD20+, CD5−, and CD4−); RPMI-8226 (ATCC CRM-CCL-155, Multiple Myeloma) (CD13−, CD20−, CD5− and CD4−); Karpas-299 (DSMZ ACC-31, Non-Hodgkin's Lymphoma) (CD20−, CD5+, and CD4+); MOLT-4 (ATCC CRL-1 582, Acute Lymphoblastic Leukemia, CD5+). In addition, the two Raji cell (ATCC CCL-86, Burkitt's Lymphoma) clones used in this study Raji-clone #10 (high CD5 expression) and Raji-clone18 (null CD5 expression), were provided by Dr. Juan M. Zapata (Instituto de Investigaciones Biomedicas “Alberto Sols”, CSIC-UAM, Madrid, Spain). Cells were maintained at 37° C., 5% CO 2 and 95% humidity in Dulbecco's Modified Eagle's Medium (DMEM) (for MCF and MDA-MB-231 cells), RPMI-1640 (for SK-BR-3, HCC-1954, NB-4, U937, Raji, RPMI-8226, Karpas-299, MOLT-4, Raji-clone #10 and Raji-clone #18 cells), RPMI-1640+1% ITS (for BT-474 cells) or McCOyS (for SK-OV-3 cells), all media supplemented with 10% Fetal Calf Serum (FCS) and 100 units/mL penicillin and streptomycin.
For adherent cells: A colorimetric assay using sulforhodamine B (SRB) was adapted for quantitative measurement of cell growth and cytotoxicity, as described in V. Vichai and K. Kirtikara (2006) Sulforhodamine B colorimetric assay for cytotoxicity screening. Nature Protocols, 1, 1112-1 116. Briefly, cells were seeded in 96-well microtiter plates and allowed to stand for 24 hours in drug-free medium before treatment with vehicle alone or the indicated compounds for 72 hours. For quantification, cells were washed twice with phosphate buffered saline (PBS), fixed for 15 min in 1% glutaraldehyde solution, rinsed twice with PBS, stained in 0.4% SRB-1% acetic acid solution for 30 min, rinsed several times with 1% acetic acid solution and air-dried. SRB was then extracted in 10 mM trizma base solution and the optical density measured at 490 nm in a microplate spectrophotometer. Cell survival was expressed as percentage of control, untreated cell survival. […]

[2] = test system: Raji cell clones #10 (high CD5) and #18 (null CD5); assay: In vitro cytotoxicity, the two Raji cell clones; format: cell-based, human; conditions: from mean IC50
Procedure: J. Immunol. Meth., 65, 55-63.
[…] dose-response (DR) curves for 72 hours were performed.

Raji cells = assay: In vitro cytotoxicity, MTT assay, 72 h dose-response; format: cell-based, human; conditions: CD13−, CD20+, CD5−, CD4−
Procedure: as §3

[3] = test system: HCC-1954, SK-BR-3, MDA-MB-231 and MCF-7 cells; assay: In vitro cytotoxicity, whole breast cancer cell panel
Excerpt: as §2
For adherent cells: A colorimetric assay using sulforhodamine B (SRB) was adapted for quantitative measurement of cell growth and cytotoxicity, as described in V. Vichai and K. Kirtikara (2006) Sulforhodamine B colorimetric assay for cytotoxicity screening. Nature Protocols, 1, 1112-1 116. Briefly, cells were seeded in 96-well microtiter plates and allowed to stand for 24 hours in drug-free medium before treatment with vehicle alone or the indicated compounds for 72 hours. For quantification, cells were washed twice with phosphate buffered saline (PBS), fixed for 15 min in 1% glutaraldehyde solution, rinsed twice with PBS, stained in 0.4% SRB-1% acetic acid solution for 30 min, rinsed several times with 1% acetic acid solution and air-dried. SRB was then extracted in 10 mM trizma base solution and the optical density measured at 490 nm in a microplate spectrophotometer. Cell survival was expressed as percentage of control, untreated cell survival.
The IC50 value refers to the concentration of compound inducing a 50% of cell death as compared to the control cell survival.
Standard dose-response (DR) curves for 72 hours were performed.

## COC1=CC[C@@H]([C@@H](C)/C=C(C)/C=C\C=C/C(=O)N[C@H](C(=O)N/C=C\C[C@H](C/C=C(\C)Cl)OC(=O)NCCCNC(=O)CCCCCN2C(=O)C=CC2=O)C(C)(C)C)OC1=O [Compound 1]
BT-474 cells; BT-474, 72 h
  IC50: 0.0064 µg/mL and 7.47 nM
HCC-1954 cells; HER2+, 72 h, read-out: IC50
  IC50: 0.00096 µg/mL and 1.12 nM
SK-OV-3 cells; SK-OV-3, 72 h
  IC50: 0.0057 µg/mL and 6.66 nM
SK-BR-3 cells; HER2+, 72 h, read-out: IC50
  IC50: 0.00089 µg/mL and 1.04 nM
NB-4 cells
  IC50: 0.000805 µg/mL and 0.939 nM
MOLT-4 cells
  IC50: 0.00335 µg/mL and 3.91 nM
[1]; read-out: IC50 values along the different cell lines tested (range)
  IC50: 0.00089 µg/mL to 0.0064 µg/mL and 1.04 nM to 7.47 nM
[1]; read-out: mean IC50 value across the whole cell panel
  IC50: 0.00341 µg/mL and 3.98 nM
[2]
  more active in CD5 overexpressing cells (clone #10) than in CD5 null cells (clone #18): around 1 log

## COC1=CC[C@@H]([C@@H](C)/C=C(C)/C=C\C=C/C(=O)N[C@H](C(=O)N/C=C\C[C@H](C/C=C(\C)Cl)OC(=O)NCCCN)C(C)(C)C)OC1=O [Compound 4]
BT-474 cells; BT-474, HER2+, 72 h, read-out: IC50
  IC50: 0.00174 µg/mL and 2.62 nM
SK-OV-3 cells; SK-OV-3, ovary, HER2+, 72 h, read-out: IC50
  IC50: 0.00073 µg/mL and 1.1 nM
NB-4 cells
  IC50: 7.9e-05 µg/mL and 0.12 nM
Raji cells
  IC50: 0.00141 µg/mL
Raji cells; read-out: IC50
  IC50: 2.12 nM
Raji cells; Homo sapiens, Raji, read-out: IC50
  IC50: 0.00265 µg/mL and 4 nM
MOLT-4 cells
  IC50: 0.00091 µg/mL and 1.37 nM
[1]; six cell lines, read-out: mean IC50 value across the whole cell panel
  IC50: 0.000569 µg/mL and 0.857 nM
[1]; six cell lines, two independent experiments, read-out: IC50 values along the different cell lines tested (range)
  IC50: 0.089 to 1.7 ng/mL (≈ 0.134 to 2.56 nM)
[3]; Homo sapiens, read-out: mean IC50 value across the whole cell panel, four breast cell lines
  IC50: 0.000197 µg/mL and 0.296 nM
[3]; four breast cell lines
  mean IC50 value across the whole cell panel: 0.33 ng/mL
[3]; read-out: mean IC50 value across the whole cell panel, four breast cell lines
  IC50: 0.498 nM

## COC1=CC[C@@H]([C@@H](C)/C=C(C)/C=C\C=C/C(=O)N[C@H](C(=O)N/C=C\C[C@H](C/C=C(\C)Cl)OC(N)=O)C(C)(C)C)OC1=O [Compound 40]
HCC-1954 cells
  IC50: 7.1e-05 µg/mL and 0.116 nM
SK-BR-3 cells
  IC50: 4.9e-05 µg/mL and 0.081 nM
NB-4 cells
  IC50: 3.1e-05 µg/mL and 0.052 nM
Raji cells
  IC50: 0.000115 µg/mL and 0.000285 µg/mL
Raji cells; read-out: IC50
  IC50: 0.19 nM and 0.47 nM
MOLT-4 cells
  IC50: 9.3e-05 µg/mL and 0.154 nM
[3]; Homo sapiens, read-out: IC50 values along the different cell lines tested (range)
  IC50: 0.049 to 0.173 ng/mL
[3]; Homo sapiens, read-out: mean IC50 value across the whole cell panel
  IC50: 0.000106 µg/mL and 0.175 nM
